Assays:
c-Src kinase domain [1] = target: T1, c-Src kinase domain (Homo sapiens, UniProt P12931); experiment: RP-HPLC assay to measure peptide phosphorylation kinetics; assay type: biochemical; conditions: purified peptide substrate
Method: To validate the enrichment scores observed in the c-Src screening data, the phosphorylation rates were measured in vitro with the purified catalytic domain of c-Src and synthetic 11-residue peptides derived from sequences in the pTyr-Var library. […] Reactions were initiated by adding 1 mM ATP. At various time points, 100 μL aliquots were removed and quenched by the addition of EDTA to a final concentration of 25 mM. Each time point sample was analyzed by analytical RP-HPLC, monitoring absorbance at 214 nm. Forty μL of each time point was injected onto a C18 column (ZORBAX 300 SB-C18, 5 μm, 4.6x150 mm). The solvent system used was water with 0.1% trifluoroacetic acid (solvent A) and acetonitrile with 0.1% trifluoroacetic acid (solvent B). […] The fractional product peak area was plotted as a function of reaction time, and the initial linear regime of this plot was fitted to a straight line to determine a reaction rate. Rates were corrected for substrate and enzyme concentration. Reactions were done in triplicate or quadruplicate.

c-Src kinase domain [2] = target: T1, c-Src kinase domain; experiment: ADP-Quest continuous fluorimetric kinase assay (Michaelis-Menten parameters and initial rates); assay type: biochemical; conditions: c-Src kinase domain 10 nM, 100 μM ATP, 37 °C, three to five replicates, error = standard error of global Michaelis-Menten fit
Excerpt: A fluorescence-based assay from Eurofins (ADP Quest) was used to measure the Michaelis-Menten kinetic parameters for phosphorylation of the consensus peptides by purified tyrosine kinase domains. In this assay, ADP production as a result of kinase activity is coupled to the production of resorufin, a fluorophore that emits signal at 590 nm. For all experiments, the assay reactions were set up as described in the provided assay kit protocol, in a 384 well plate format. The peptide solutions were serially diluted in 100 mM Tris, pH 8.0, and the kinases were diluted to 50 nM in buffer (10 mM HEPES, 100 mM NaCl, 1 mM TCEP, 5 mM MgCl2, 10% (v/v) glycerol). The final reaction mixtures contained 10 nM of kinase with 100 μM of ATP. […] Phosphorylation reaction progress was monitored by measuring fluorescence at excitation 530 nm and emission 590 nm every 2 min at 37 °C on a plate reader (BioTek Synergy Neo 2). The fluorescence units (RFU) were converted to μM ADP by comparison to a standard curve, and the initial rates were extracted from the linear regime of the reaction progress curves. Initial rates were also measured for samples containing each kinase but lacking a peptide substrate, to account for background ATP hydrolysis. This background rate was subtracted from the rates measured in the presence of peptide. […]

FGFR1 kinase domain = experiment: LC-MS assay of intact SHP2 protein phosphorylation; assay type: biochemical, human; conditions: SHP2 10 μM, kinase 1 μM, 1 hr, 37 °C, 2 to 3 measurements
Method: (§1) The same protocol used to express and purify SH2 domains, excluding co-expression of BirA and addition of biotin, was applied to the expression and purification of the SHP2 variants.
(§2) To pre-activate the kinases, 1 μM of each purified kinase domain was preincubated at 37 °C for 30 min in the same buffer conditions used in the kinase domain peptide display screen, with 1 mM ATP. The reaction of the kinase with SHP2 was initiated with the addition of 10 μM SHP2, and the mixture was incubated in 37 °C for 1 hr. To terminate the reaction, the mixture was quenched with 200 mM EDTA. The reaction mixture was diluted 3:2 in water and injected onto a BEH C8 column (Waters) on a UPLC-MS system (Xevo QToF, Waters). Reverse-phase liquid chromatography was carried out at 0.3 mL/min with solvents A (H2O, 0.1% (v/v) formic acid) and B (acetonitrile, 0.1% (v/v) formic acid). Proteins were eluted over a gradient of 5–95% B for 8.5 min. The protein peak on the chromatogram was deconvoluted using the MaxEnt1 algorithm from 32,000–65,000 Da with a resolution of 1 Da/channel over 30 iterations. Peaks were chosen according to the theoretical MW of the protein within a range of 5 Da, and integrated for the signal intensity.

Fyn kinase domain = experiment: LC-MS assay of intact SHP2 protein phosphorylation; assay type: biochemical, human; conditions: SHP2 10 μM, kinase 1 μM, 1 hr, 37 °C, 2 to 3 measurements
Method: as §1, §2

## Ac-AGQEEYSAMRD-NH2 [HRAS-Y64]
c-Src kinase domain [1]
  Phosphorylation Rate: 0.156 s⁻¹

## Ac-GAEEEIYGIFGAKKKG-NH2 [SrcTide (2014), previously reported c-Src consensus substrate (Deng et al., 2014)]
c-Src kinase domain [2]
  Km: 7 ± 3 µM
  kcat: 1.8±0.1 s^–1

B1: SHP2 wild-type: human full-length SHP2 (residues 1–526; C459E) (protein, UniProt Q06124 2-593, looked up, variant C459E)
Tyrosine-protein phosphatase …: TSRRWFHPNITGVEAENLLLTRGVDGSFLARPSKSNPGDFTLSVRRNGAVTHIKIQNTGDYYDLYGGEKFATLAELVQYYMEHHGQLKEKNGDVIELKYPLNCADPTSERWFHGHLSGKEAEKLLTEKGKHGSFLVRESQSHPGDFVLSVRTGDDKGESNDGKSKVTHVMIRCQELKYDVGGGERFDSLTDLVEHYKKNPMVETLGTVLQLKQPLNTTRINAAEIESRVRELSKLAETTDKVKQGFWEEFETLQQQECKLLYSRKEGQRQENKNKNRYKNILPFDHTRVVLHDGDPNEPVSDYINANIIMPEFETKCNNSKPKKSYIATQGCLQNTVNDFWRMVFQENSRVIVMTTKEVERGKSKCVKYWPDEYALKEYGVMRVRNVKESAAHDYTLRELKLSKVGQGNTERTVWQYHFRTWPDHGVPSDPGGVLDFLEEVHHKQESIMDAGPVVVHESAGIGRTGTFIVIDILIDIIREKGVDCDIDVPKTIQMVRSQRSGMVQTEAQYRFIYMAVQHYIETLQRRIEEEQKSKRKGHEYTNIKYSLADQTSGDQSPLPPCTPTPPCAEMREDSARVYENVGLMQQQKSFR
FGFR1 kinase domain
  phosphorylation of intact SHP2 by FGFR1: fastest
Fyn kinase domain
  phosphorylation of intact SHP2 by Fyn: slowest
